# Measured values reported in ChEMBL document CHEMBL4392830, “Synthesis and biological evaluation of Doxorubicin-containing conjugate targeting PSMA” (Bioorg Med Chem Lett, 2019).
# Active and inactive are the calls of the source. No cut-off for these calls is given here.
# What was measured:
# [1] = Drug uptake in PSMA-negative human PC3 cells measured after 2 hrs by DAPI staining based fluorescence assay; type: ADME, cell-based; settings: pc-3, 2 h
# [2] = target: T1, Glutamate carboxypeptidase 2 (Homo sapiens, UniProt Q04609); assay: Binding affinity to PSMA in human LNCAP cells measured after 2 hrs by DAPI staining based fluorescence assay; type: ADME, cell-based
# LNCaP C4-2 = assay: Cytotoxicity against PSMA-positive human C4-2 cells by cellTiter 96 aqueous cell proliferation assay; type: functional, cell-based
# [3] = Ratio of drug level in nucleus to cytoplasm of PSMA-negative human PC3 cells measured after 40 milliseconds; type: ADME
# PC-3 [4] = assay: Cytotoxicity against PSMA-negative human PC3 cells by MTT assay; type: functional
# [5] = Ratio of drug level in nucleus to cytoplasm of PSMA-positive human LNCAP cells measured after 40 milliseconds; type: ADME
# [6] = Drug uptake in nucleus of PSMA-negative human PC3 cells at 15 uM measured after 2 hrs by DAPI staining based fluorescence assay; type: ADME, subcellular; settings: pc-3, 2 h
# [7] = Drug uptake in nucleus of PSMA-positive human LNCAP cells at 15 uM measured after 2 hrs by DAPI staining based fluorescence assay; type: ADME, subcellular
# [8] = Antitumor activity against PSMA-positive human PC3-PIP cells xenografted in nu/nu mouse assessed as tumor growth inhibition at 4 mg/kg, ip per week for 3 weeks relative to control; type: functional; settings: 504 h, read-out: TGI
# PC-3 [9] = assay: Cytotoxicity against PSMA-negative human PC3 cells by cellTiter 96 aqueous cell proliferation assay; type: functional, cell-based
# [10] = Drug uptake in nucleus of PSMA-positive human LNCAP cells measured after 48 hrs; type: ADME, subcellular
# LNCaP = assay: Cytotoxicity against PSMA-positive human LNCAP cells by MTT assay; type: functional
# [11] = target: T1, Glutamate carboxypeptidase 2; assay: Binding affinity to PSMA in human LNCAP cells assessed as doxorubicin release in cytoplasm measured after 40 milliseconds; type: ADME, cell-based
# [12] = target: T1, Glutamate carboxypeptidase 2; assay: Binding affinity to PSMA in human LNCAP cells assessed as doxorubicin release in cytoplasm measured after 48 hrs; type: ADME, cell-based
# [13] = Drug uptake in nucleus of PSMA-negative human PC3 cells measured after 40 milliseconds; type: ADME, subcellular; settings: pc-3
# [14] = Drug uptake in cytoplasm of PSMA-negative human PC3 cells measured after 40 milliseconds; type: ADME, subcellular; settings: pc-3
# [15] = target: T1, Glutamate carboxypeptidase 2; assay: Binding affinity to PSMA in human LNCAP cells assessed as doxorubicin release in nucleus measured after 40 milliseconds; type: ADME, cell-based
# T1 sequence (Q04609 whole entry): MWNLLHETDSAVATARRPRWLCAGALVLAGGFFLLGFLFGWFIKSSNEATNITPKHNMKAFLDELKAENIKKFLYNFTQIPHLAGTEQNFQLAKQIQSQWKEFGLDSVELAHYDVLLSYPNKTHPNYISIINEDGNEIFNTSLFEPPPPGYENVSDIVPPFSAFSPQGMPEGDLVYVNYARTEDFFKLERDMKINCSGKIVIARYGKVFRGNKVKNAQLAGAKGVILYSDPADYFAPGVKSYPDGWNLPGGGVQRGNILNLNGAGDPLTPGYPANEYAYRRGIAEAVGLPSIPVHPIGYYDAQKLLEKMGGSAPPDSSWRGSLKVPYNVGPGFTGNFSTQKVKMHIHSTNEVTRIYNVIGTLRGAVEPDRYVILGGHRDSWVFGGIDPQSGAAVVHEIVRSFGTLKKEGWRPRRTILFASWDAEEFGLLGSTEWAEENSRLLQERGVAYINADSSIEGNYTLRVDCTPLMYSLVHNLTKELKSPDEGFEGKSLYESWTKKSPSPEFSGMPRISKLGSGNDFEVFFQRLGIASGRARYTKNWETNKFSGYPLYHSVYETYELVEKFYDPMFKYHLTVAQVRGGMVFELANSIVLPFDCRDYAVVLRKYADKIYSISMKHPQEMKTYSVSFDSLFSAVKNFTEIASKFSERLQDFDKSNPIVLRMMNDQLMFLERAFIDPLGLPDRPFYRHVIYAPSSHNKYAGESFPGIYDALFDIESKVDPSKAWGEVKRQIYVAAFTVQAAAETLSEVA
Drug uptake [1],Activity [2],Ratio [3],Ratio [5],Drug uptake [6],Drug uptake [7],Drug uptake [10],Activity [11],Activity [12],Drug uptake [13],Drug uptake [14],Activity [15],SMILES,IC50 (LNCaP C4-2),CC50 (PC-3 [4]),inhibition in vivo at 4 mg/kg [8],IC50 (PC-3 [9]),CC50 (LNCaP),Activity (LNCaP C4-2),Activity (PC-3 [9])
Not Active,Active,–,–,–,–,–,–,–,–,–,–,CN1\C(=C/C=C/C=C/C2=[N+](CCCCCC(=O)NCCCCCCCCCCC(=O)NCCCC[C@H](NC(=O)N[C@@H](CCC(=O)O)C(=O)O)C(=O)O)c3cc(S(=O)(=O)[O-])ccc3C2(C)C)C(C)(C)c2cc(S(=O)(=O)[O-])ccc21.[Na+],–,–,–,–,–,–,–
–,–,3.7,3.5,Active,Active,Active,–,–,–,–,–,COc1cccc2c1C(=O)c1c(O)c3c(c(O)c1C2=O)C[C@@](O)(C(=O)CO)C[C@@H]3O[C@H]1C[C@H](N)[C@H](O)[C@H](C)O1 [DOXORUBICIN],> 32 nM,< 500 nM,92%,> 32 nM,107 nM,–,–
–,–,–,–,–,–,–,Not Active,Active,Not Active,Not Active,Not Active,COc1cccc2c1C(=O)c1c(O)c3c(c(O)c1C2=O)C[C@@](O)(C(=O)CO)C[C@@H]3O[C@H]1C[C@H](NC(=O)CCC(=O)NCCCCCCCCCCC(=O)NCCCC[C@H](NC(=O)N[C@@H](CCC(=O)O)C(=O)O)C(=O)O)[C@H](O)[C@H](C)O1,–,inactive,–,–,inactive,inactive,inactive
